Drawing on ChEMBL document CHEMBL4425195, “Isolation of three new annonaceous acetogenins from Graviola fruit (Annona muricata) and their anti-proliferation on human prostate cancer cell PC-3” (Bioorg Med Chem Lett, 2016), this text covers Activity for 2 compounds.

In this test the test system is PC-3. Put plainly: Antiproliferative activity against human PC3 cells at 20 ug/ml after 24 hrs by MTT assay. The test is classed as functional, cell-based. (Tetrazolium dyes change colour on reduction, which living cells bring about.)

Molecules are shown by their SMILES. Calls of active or inactive are those of the source. The rule behind the calls is not given here.

With `CCCCCCCCCCCC/C=C/CC[C@H](O)[C@@H]1CC[C@@H]([C@@H](O)CCC(O)CCCCC[C@H](O)CC2=C[C@H](C)OC2=O)O1` (some centres not stated), the result was Active.
As to `CCCCCCCCCC[C@@H](O)[C@@H](O)C[C@H](O)[C@@H]1CC[C@@H](CCCCCCCCCC[C@H](O)CC2=C[C@H](C)OC2=O)O1`, the outcome was Active.
